Test results as given in ChEMBL document CHEMBL4340556, “Novel benzothiazole hydrazine carboxamide hybrid scaffolds as potential in vitro GABA AT enzyme inhibitors: Synthesis, molecular docking and antiepileptic evaluation” (Bioorg Med Chem Lett, 2019).
The source made the active and inactive calls. The calls are words filed in the database; no cut-off is given here.

Experiments:
[1] = system: Mus musculus; assay: Anticonvulsant activity in ip dosed albino mouse model of maximal electroshock-induced seizures assessed as prevention of tonic hind limb extension pretreated for 4 hrs followed by 50 mA current-induction for 0.25 secs; assay type: functional
[2] = Neurotoxicity in ip dosed albino mouse assessed as motor impairment measured at 0.5 hrs by rotarod test; assay type: toxicity, organism-based; details: in vivo
[3] = Neurotoxicity in ip dosed albino mouse assessed as motor impairment measured at 4 hrs by rotarod test; assay type: toxicity, organism-based; details: in vivo
[4] = system: Mus musculus; assay: Anticonvulsant activity in ip dosed albino mouse model of subcutaneous pentylenetetrazole-induced seizure assessed as failure to observe even a single episode of clonic spasms for at least 5 secs pretreated for 0.5 hrs followed by pentylenetetrazole induction; assay type: functional
[5] = system: Mus musculus; assay: Anticonvulsant activity in ip dosed albino mouse model of maximal electroshock-induced seizures assessed as prevention of tonic hind limb extension pretreated for 0.5 hrs followed by 50 mA current-induction for 0.25 secs; assay type: functional
[6] = system: Mus musculus; assay: Anticonvulsant activity in ip dosed albino mouse model of subcutaneous pentylenetetrazole-induced seizure assessed as failure to observe even a single episode of clonic spasms for at least 5 secs pretreated for 4 hrs followed by pentylenetetrazole induction; assay type: functional
[7] = Hepatotoxicity in albino mouse assessed as decrease in serum SGOT level at 30 mg/kg, po administered daily for one month measured post-last dose; assay type: toxicity, organism-based; details: in vivo
[8] = Hepatotoxicity in albino mouse assessed as decrease in serum alkaline phosphatase level at 30 mg/kg, po administered daily for one month measured post-last dose; assay type: toxicity, organism-based; details: in vivo
[9] = system: Mus musculus; assay: Anticonvulsant activity in po dosed albino mouse brain assessed as increase in brain GABA level administered for 7 days by TLC analysis; assay type: functional
[10] = molecular target: 4-aminobutyrate aminotransferase, mitochondrial (Mus musculus, UniProt P61922); assay: Inhibition of GABA aminotransferase in mouse brain homogenates using GABA and alpha-ketoglutarate as substrates preincubated for 30 mins followed by beta-NADP addition and measured for 20 mins by spectrophotometric method; assay type: tissue-based
4-aminobutyrate aminotransferase, mitochondrial, sequence (P61922 whole entry): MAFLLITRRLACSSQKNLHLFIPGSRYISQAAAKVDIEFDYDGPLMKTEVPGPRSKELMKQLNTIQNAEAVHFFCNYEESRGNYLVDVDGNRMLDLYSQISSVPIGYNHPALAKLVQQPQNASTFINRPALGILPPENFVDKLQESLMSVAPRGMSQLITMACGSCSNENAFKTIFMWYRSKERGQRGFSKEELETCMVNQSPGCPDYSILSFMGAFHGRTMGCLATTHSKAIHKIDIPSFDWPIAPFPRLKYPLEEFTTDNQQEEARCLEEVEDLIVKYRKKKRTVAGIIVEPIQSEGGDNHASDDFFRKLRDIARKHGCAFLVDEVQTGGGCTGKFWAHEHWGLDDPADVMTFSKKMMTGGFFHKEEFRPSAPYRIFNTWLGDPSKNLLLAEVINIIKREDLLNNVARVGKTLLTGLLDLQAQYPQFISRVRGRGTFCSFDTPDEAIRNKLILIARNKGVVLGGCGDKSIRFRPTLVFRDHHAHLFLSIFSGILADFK

[11] = Hepatotoxicity in albino mouse assessed as appearance of normal hepatocyte with clearing of cytoplasm at 30 mg/kg, po administered daily for one month measured post-last dose by histopathological analysis; assay type: toxicity, organism-based; details: in vivo
[12] = Hepatotoxicity in albino mouse assessed as decrease in serum SGPT level at 30 mg/kg, po administered daily for one month measured post-last dose; assay type: toxicity, organism-based; details: in vivo
[13] = Hepatotoxicity in albino mouse assessed as increase in serum serum alkaline phosphatase level at 30 mg/kg, po administered daily for one month measured post-last dose; assay type: toxicity, organism-based; details: in vivo
[14] = Hepatotoxicity in albino mouse assessed as increase in serum SGPT level at 30 mg/kg, po administered daily for one month measured post-last dose; assay type: toxicity, organism-based; details: in vivo

Compound | MED=>50 [1] | MED=>50 [2] | MED=>50 [3] | MED=>50 [4] | MED=>50 [5] | MED=>50 [6] | Activity [7] | Activity [8] | fold change (FC) [9] | IC50 [10] | Activity [11] | Activity [12] | Activity [13] | Activity [14]
O=C(Nc1nc2ccc(Cl)cc2s1)NN1C(=O)C(Cl)C1c1ccc([N+](=O)[O-])cc1 (stereo not drawn) | 100 mg/kg | Non-Toxic | Non-Toxic | 300 mg/kg | 100 mg/kg | 300 mg/kg | – | – | – | – | – | – | – | –
O=C(Nc1nc2ccc(Cl)cc2s1)NN1C(=O)CSC1c1ccccc1Cl (stereo not drawn) | 100 mg/kg | Non-Toxic | Non-Toxic | 300 mg/kg | 100 mg/kg | 300 mg/kg | – | – | – | – | – | – | – | –
CCCC(CCC)C(=O)O [VALPROIC ACID] | inactive | Non-Toxic | Non-Toxic | 300 mg/kg | inactive | inactive | – | – | – | – | – | – | – | –
COc1ccc(C2C(Cl)C(=O)N2NC(=O)Nc2nc3ccc(Cl)cc3s2)cc1 (stereo not drawn) | 300 mg/kg | Non-Toxic | Non-Toxic | inactive | 300 mg/kg | inactive | – | – | – | – | – | – | – | –
O=C(Nc1nc2ccc(Cl)cc2s1)NN1C(=O)CSC1c1ccc(Cl)cc1Cl (stereo not drawn) | 100 mg/kg | Non-Toxic | Non-Toxic | 100 mg/kg | 30 mg/kg | 100 mg/kg | Toxic | Toxic | 1.5 | 15.3 µM | Non-Toxic | Toxic | – | –
CCC1(C)CC(=O)NC1=O (stereo not drawn) [ETHOSUXIMIDE] | inactive | Non-Toxic | Non-Toxic | 300 mg/kg | inactive | inactive | – | – | – | – | – | – | – | –
O=C1NC(=O)C(c2ccccc2)(c2ccccc2)N1 [PHENYTOIN] | 30 mg/kg | 100 mg/kg | 100 mg/kg | inactive | 30 mg/kg | inactive | – | – | – | – | – | – | – | –
COc1ccc(C2SCC(=O)N2NC(=O)Nc2nc3ccc(Cl)cc3s2)cc1 (stereo not drawn) | inactive | Non-Toxic | Non-Toxic | inactive | 300 mg/kg | inactive | – | – | – | – | – | – | – | –
O=C(Nc1nc2ccc(Cl)cc2s1)NN1C(=O)C(Cl)C1c1ccccc1Cl (stereo not drawn) | 300 mg/kg | Non-Toxic | Non-Toxic | inactive | 300 mg/kg | inactive | – | – | – | – | – | – | – | –
C=CC(N)CCC(=O)O (stereo not drawn) [VIGABATRIN] | – | – | – | – | – | – | – | – | – | 39.7 µM | – | – | – | –
O=C(Nc1nc2ccc(Cl)cc2s1)NN1C(=O)C(Cl)C1c1ccc(Cl)cc1Cl (stereo not drawn) | 100 mg/kg | Non-Toxic | Non-Toxic | 100 mg/kg | 30 mg/kg | 100 mg/kg | Toxic | – | – | 51.4 µM | – | – | Toxic | Toxic
O=C(Nc1nc2ccc(Cl)cc2s1)NN1C(=O)C(Cl)C1c1ccccc1 (stereo not drawn) | 300 mg/kg | Non-Toxic | Non-Toxic | inactive | 300 mg/kg | inactive | – | – | – | – | – | – | – | –
Cc1ccccc1C1C(Cl)C(=O)N1NC(=O)Nc1nc2ccc(Cl)cc2s1 (stereo not drawn) | 300 mg/kg | 300 mg/kg | 300 mg/kg | inactive | 300 mg/kg | inactive | – | – | – | – | – | – | – | –
CC(=O)Oc1ccccc1C1SCC(=O)N1NC(=O)Nc1nc2ccc(Cl)cc2s1 (stereo not drawn) | 300 mg/kg | Non-Toxic | Non-Toxic | inactive | 300 mg/kg | inactive | – | – | – | – | – | – | – | –
NC(=O)N1c2ccccc2C=Cc2ccccc21 [CARBAMAZEPINE] | 100 mg/kg | 100 mg/kg | 300 mg/kg | 100 mg/kg | 30 mg/kg | 100 mg/kg | – | – | – | – | – | – | – | –
O=C(Nc1nc2ccc(Cl)cc2s1)NN1C(=O)CSC1c1ccc([N+](=O)[O-])cc1 (stereo not drawn) | 100 mg/kg | Non-Toxic | Non-Toxic | 100 mg/kg | 30 mg/kg | 100 mg/kg | Toxic | – | – | 58.1 µM | – | – | Toxic | Toxic
CC(=O)Oc1ccccc1C1C(Cl)C(=O)N1NC(=O)Nc1nc2ccc(Cl)cc2s1 (stereo not drawn) | 300 mg/kg | Non-Toxic | Non-Toxic | inactive | 300 mg/kg | inactive | – | – | – | – | – | – | – | –
Cc1ccccc1C1SCC(=O)N1NC(=O)Nc1nc2ccc(Cl)cc2s1 (stereo not drawn) | 300 mg/kg | 300 mg/kg | 300 mg/kg | inactive | 300 mg/kg | inactive | – | – | – | – | – | – | – | –
O=C(Nc1nc2ccc(Cl)cc2s1)NN1C(=O)CSC1c1ccccc1 (stereo not drawn) | 300 mg/kg | Non-Toxic | Non-Toxic | 300 mg/kg | 300 mg/kg | 300 mg/kg | – | – | – | – | – | – | – | –
